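Dose response: 5 concentrations. Exposure: 48 h. Format: 96-well plates. Endpoint: linear interpolation; highest concentration if not reached. Definition used: TGI = concentration required for complete inhibition of growth.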
Key:
Test in all cases: growth of human tumour cells (NCI), 48 h
SF-295 CNS = system: SF-295 CNS
UO-31 renal = system: UO-31 renal
SNB-75 CNS = system: SNB-75 CNS
NCI-H522 lung = system: NCI-H522 lung
OVCAR-8 ovarian = system: OVCAR-8 ovarian
COLO 205 colon = system: COLO 205 colon
T-47D breast = system: T-47D breast
DU-145 prostate = system: DU-145 prostate
SK-MEL-2 melanoma = system: SK-MEL-2 melanoma
HOP-92 NSCLC = system: HOP-92 NSCLC
RPMI-8226 leukemia = system: RPMI-8226 leukemia
HOP-62 NSCLC = system: HOP-62 NSCLC
SR leukemia = system: SR leukemia
NCI-H226 lung = system: NCI-H226 lung
UACC-62 melanoma = system: UACC-62 melanoma
MDA-MB-435 = system: MDA-MB-435
UACC-257 melanoma = system: UACC-257 melanoma
MOLT-4 leukemia = system: MOLT-4 leukemia
M14 melanoma = system: M14 melanoma
MDA-N = system: MDA-N
BT-549 breast = system: BT-549 breast
A549 NSCLC = system: A549 NSCLC
OVCAR-3 ovarian = system: OVCAR-3 ovarian
OVCAR-5 ovarian = system: OVCAR-5 ovarian
SW-620 colon = system: SW-620 colon
NCI-H460 lung = system: NCI-H460 lung
786-0 renal = system: 786-0 renal
HCC-2998 colon = system: HCC-2998 colon
RXF 393 renal = system: RXF 393 renal
NCI-H23 lung = system: NCI-H23 lung
KM12 colon = system: KM12 colon
OVCAR-4 ovarian = system: OVCAR-4 ovarian
NCI/ADR-RES ovarian = system: NCI/ADR-RES ovarian
SN12C renal = system: SN12C renal
TK-10 renal = system: TK-10 renal
SK-MEL-28 melanoma = system: SK-MEL-28 melanoma
EKVX NSCLC = system: EKVX NSCLC
U251 CNS = system: U251 CNS
K-562 leukemia = system: K-562 leukemia
HCT-116 colon = system: HCT-116 colon
SK-OV-3 ovarian = system: SK-OV-3 ovarian
HCT-15 colon = system: HCT-15 colon
MCF7 breast = system: MCF7 breast
HT29 colon = system: HT29 colon
HS 578T breast = system: HS 578T breast
SNB-19 CNS = system: SNB-19 CNS
PC-3 prostate = system: PC-3 prostate
SF-539 CNS = system: SF-539 CNS
ACHN renal = system: ACHN renal
A498 renal = system: A498 renal
MALME-3M melanoma = system: MALME-3M melanoma
IGROV1 ovarian = system: IGROV1 ovarian
SK-MEL-5 melanoma = system: SK-MEL-5 melanoma
MDA-MB-231 breast = system: MDA-MB-231 breast
SF-268 CNS = system: SF-268 CNS
CAKI-1 renal = system: CAKI-1 renal
LOX IMVI melanoma = system: LOX IMVI melanoma
CCRF-CEM leukemia = system: CCRF-CEM leukemia
HL-60(TB) leukemia = system: HL-60(TB) leukemia

Measured: TGI

CC1=c2c(oc3cc(O)c(Nc4c(C)cc(O)cc4O)c(C)c23)=CC(=O)C1=Nc1c(C)cc(O)cc1O
35.1 µM: SK-MEL-5 melanoma
68.5 µM: HCT-116 colon
85.3 µM: M14 melanoma
40 µM: MDA-N
63.1 µM: NCI-H522 lung
55.3 µM: OVCAR-3 ovarian
88.3 µM: SNB-75 CNS
42.1 µM: COLO 205 colon
33.5 µM: MDA-MB-435
73.7 µM: SN12C renal
70.1 µM: SF-295 CNS
94 µM: KM12 colon
50.4 µM: NCI-H23 lung
94.9 µM: HT29 colon
56.3 µM: SF-539 CNS
55.7 µM: HCC-2998 colon
54.3 µM: MALME-3M melanoma
not listed: LOX IMVI melanoma | CCRF-CEM leukemia | HL-60(TB) leukemia
> 100 µM: all other assays above

N#CC(NCCc1ccccc1)c1ccccc1 (stereo not drawn)
not listed: K-562 leukemia | A498 renal
> 100 µM: all other assays above

From PubChem BioAssay (NCI)
